Test results published in patent publication US7879870B2, “Treatment of inflammatory and ulcerative diseases of the bowel with opioid antagonists” (priority 2006, dated 2011).
“Also recorded” adds a separate entry of the source.

How the values were obtained:
beta-actin mRNA = assay: Distal colon RNA of DSS mice, real-time RT-PCR; assay type: in vivo, mouse; conditions: DSS+NTX
Description: (§1) Total RNA was extracted from the distal colon samples (using TRIZOL® available from Invitrogen Corp., Carlsbad, Calif.; TRIZOL® is a trademark of Molecular Research Center, Inc. of Cincinnati, Ohio) and subjected to microarray analysis using a 10K mouse microarray (MWG Biotech, High Point, N.C.) and a Packard Biosciences ScanArray 4000KL machine (Functional Genomics Core Facility of the Section of Research Resources, Penn State College of Medicine). To minimize the impact of variation among animals, RNA from individual mice was pooled within each treatment group. […] RNA from Normal+saline, DSS+6.3 μg/kg NTX, and DSS+350 μg/kg NTX were each tested versus DSS+saline. Data were analyzed with GenSpring 6 software (Agilent Technologies, Palo Alto, Calif.).
(§2) RNA (18S and 28S bands) was visualized using the Agilent 2100 Bioanalyzer (Agilent Technologies, Santa Clara, Calif.) and concentrations were adjusted. First strand cDNA was then produced from 1.0 μg of total RNA using random hexamer primers and the SuperScript III Reverse Transcription kit (Invitrogen). The concentration and quality of resulting cDNA was quantified and analyzed using the Agilent 2100 Bioanalyzer or spectroscopically with the NanoDrop ND-1000 (NanoDrop Technologies, Wilmington, Del.). Samples were standardized to 30 ng/μL and 60 ng of cDNA per sample was then used as a template for real-time PCR using a SYBR Green Master Mix (Qiagen, Valencia, Calif.). 18S rRNA primers (Eurogentec, San Diego, Calif.) and the following gene-specific primer sequences obtained from PrimerBank (pga.mgh.harvard.edu/primerbank) were used: beta-actin, 6671509a; IL-5, 6754336a; IL-6, 13642311a; IL-12, 6680395a; STAT3, 13277852a; STAT4, 6755670a; Muc2, 3452503a2; TFF3, 6755773a1; Palladin, 9828173a1; and TGF-beta BP, 7305243a1. To exclude the possibility of genomic DNA contamination, control reactions with no cDNA template were also performed for each gene-specific primer set. PCR amplification and analysis were performed with the Applied Biosystems Sequence Detection System 7300 using the Relative Quantification (ddCt). Amplification data for the genes of interest were normalized to 18S within each individual reaction. Triplicate reactions were performed and the resultant data from multiple runs were averaged.

IL-5 mRNA = assay: Distal colon RNA of DSS mice, real-time RT-PCR; assay type: in vivo, mouse; conditions: DSS+NTX
Description: as §1, §2

STAT3 mRNA = assay: Distal colon RNA of DSS mice, real-time RT-PCR; assay type: in vivo, mouse
Description: as §1, §2

IL-12 mRNA = assay: Distal colon RNA of DSS mice, real-time RT-PCR; assay type: in vivo, mouse; conditions: DSS mice treated with naltrexone
Description: as §1, §2

IL-6 mRNA = assay: Distal colon RNA of DSS mice, real-time RT-PCR; assay type: in vivo, mouse; conditions: DSS mice treated with naltrexone
Description: as §1, §2

STAT4 mRNA = assay: Distal colon RNA of DSS mice, real-time RT-PCR; assay type: in vivo, mouse
Description: as §1, §2

[1] = test system: mucin (Muc2), trefoil factor (TFF3), TGF-beta binding protein mRNA; assay: Distal colon RNA of DSS mice, microarray and quantitative RT-PCR; assay type: in vivo, mouse
Description: as §1
RNA (18S and 28S bands) was visualized using the Agilent 2100 Bioanalyzer (Agilent Technologies, Santa Clara, Calif.) and concentrations were adjusted. […] The concentration and quality of resulting cDNA was quantified and analyzed using the Agilent 2100 Bioanalyzer or spectroscopically with the NanoDrop ND-1000 (NanoDrop Technologies, Wilmington, Del.). […] PCR amplification and analysis were performed with the Applied Biosystems Sequence Detection System 7300 using the Relative Quantification (ddCt). […]

[2] = higher doses, i.e. 50 mg; cited from earlier work
[3] = test system: DSS-induced colitis in mice; assay: DSS-induced colitis in mice: weight, food and water intake, modified DAI, colon length; assay type: in vivo, mouse
Description: Six to eight-week-old male C57 black/6J mice (Charles River Laboratories, Inc., Wilmington, Mass.) were randomly allocated into one of two groups of 24 mice each. Food and water were provided ad libitum. The first group (Normal) received normal drinking water and the second group (DSS) received water containing 2% dextran sulfate sodium having a molecular weight of 40,000 (TdB Consultancy AB, Uppsala, Sweden) for six days followed by normal water for three additional days and necropsy on day 9 (FIG. 5A). Each mouse was housed in an individual cage for accurate measurement of food and water intake. Animal weight, water intake, and food consumption were measured daily. Bedding was changed and fresh stool pellets were collected daily and analyzed for occult blood. The colitis disease activity index (DAI) was calculated for each mouse according to the system established by Murthy and colleagues. See, Murthy, et al., “Treatment of dextran sulfate sodium-induced murine colitis by intracolonic cyclosporin,” Dig. Dis. Sci. 38, 1722-34 (1993). Overt changes in stool consistency were rarely discerned so a modified DAI was calculated based on percent weight loss and stool hemoccult or presence of gross bleeding.
(§3) Mice in each group (Normal or DSS) were randomly subdivided into three treatment groups of eight mice each. After 72 hours, mice were treated once daily for six consecutive days with a subcutaneous injection (0.1 mL) of one of the following: saline (control), 6.3 μg/kg naltrexone (“NTX”), or 350 μg/kg NTX (Sigma Chemicals, St. Louis, Mo.). On day 9, all animals were necropsied and their colons resected.
(§4) At necropsy, the entire colon was excised, measured in length, and bisected into proximal and distal portions. The proximal and distal colons were additionally divided for RNA extraction and histology. Each histology specimen was fixed in 10% neutral buffered formalin, paraffin embedded and sectioned for hematoxylin and eosin (“H&E”) staining. Specimens were examined microscopically and scored based upon the criteria established by Williams et al. by an investigator blinded to the treatment groups. Williams, et al., “Enhanced survival and mucosal repair after dextran sodium sulfate-induced colitis in transgenic mice that overexpress growth hormone,” Gastroenterology 120, 925-37 (2001). Briefly, a representative longitudinal section from each mouse was scored at six random fields for inflammation severity, extent of inflammation (mucosa, submucosa, transmural) and crypt damage. Each of these scores was weighted to reflect the percent involvement of the overall section and the weighted scores from each of the six fields were averaged to achieve an overall inflammation score for each mouse.
(§5) Results were calculated as mean±SEM. Statistical comparisons were performed between NTX treatment sub-groups and their corresponding saline control, as well as between the Normal and DSS groups, comparing corresponding treatments. Parametric analyses were performed (Minitab 13, State College, Pa.) using a modified Bonferroni method to correct for multiple comparisons to controls.

[4] = test system: DSS-induced colitis in mice; assay: DSS-induced colitis in mice: histological inflammation score of distal colon (H&E); assay type: in vivo, mouse
Description: as §3, §4, §5

[5] = DSS mice treated with naltrexone

O=C1CC[C@@]2(O)[C@H]3Cc4ccc(O)c5c4[C@@]2(CCN3CC2CC2)[C@H]1O5 [naltrexone]
Expression of beta-actin (beta-actin mRNA): not significantly changed | Expression of IL-5 (IL-5 mRNA): not significantly changed | STAT3 mRNA level versus colitis-free Normal controls (STAT3 mRNA; [5]): statistically indistinguishable from colitis-free, Normal controls | STAT3 mRNA level, decrease after naltrexone treatment (STAT3 mRNA; DSS mice, DSS+saline increased 2.20-fold): greater than 50% | DSS-induced up-regulation of STAT3 expression (in words) (STAT3 mRNA; DSS-treated mice): reversed | IL-12 mRNA level versus colitis-free mice (IL-12 mRNA): decreased to levels near or equal to that in mice without colitis; also recorded: restored mRNA expression to that seen in the colitis-free, Normal mice | IL-12 mRNA level versus DSS+saline (IL-12 mRNA; DSS+saline increased three-fold): greatly reduced | IL-6 mRNA level versus colitis-free mice (IL-6 mRNA): decreased to levels near or equal to that in mice without colitis; also recorded: not completely restored to those seen in the colitis-free animals | IL-6 mRNA level versus DSS+saline (IL-6 mRNA; DSS+saline increased 73-fold): greatly reduced | STAT4 mRNA level versus Normal mice (STAT4 mRNA; [5]): still slightly higher than in the Normal mice | STAT4 mRNA level, decrease after naltrexone treatment (STAT4 mRNA; DSS mice, DSS+saline increased 8.03-fold): greater than 50% | DSS-induced up-regulation of STAT4 expression (in words) (STAT4 mRNA; DSS-treated mice): reversed | Levels of Muc2, TFF3 and TGF-beta binding protein mRNAs, microarray ([1]; DSS animals, either 6.3 or 350 μg/kg): restored the levels of these mRNAs in DSS animals to varying extents | Levels of Muc2, TFF3 and TGF-beta binding protein mRNAs, quantitative RT-PCR, versus Normal animals ([1]; DSS+NTX animals): not significantly different from Normal animals | Liver transaminases [2]: elevate liver transaminases | Colon length ([3]; DSS mice treated with naltrexone, still shorter than in untreated animals): more normal colon lengths | DAI scores / disease symptoms compared to DSS+saline (in words) ([3]; DSS mice, 350 μg/kg): lower DAI scores; also recorded: decreased | Weight loss compared to DSS mice treated with saline ([3]; DSS mice, 350 μg/kg): less weight loss; also recorded: decreased | Weight loss compared to DSS+saline ([3]; DSS mice, naltrexone s.c. once daily from 72 hours): tended to be less | DAI scores of DSS mice (in words) ([3]; DSS mice, naltrexone treatment): A reduction in these DAI scores was evident | Weight loss compared to DSS+saline, statistical significance ([3]; DSS+6.3 μg/kg NTX, p=0.02): only reached statistical significance on day 6 | Modified DAI scores ([3]; Normal mice (no DSS), NTX-treated): no evidence of colitis | DAI scores lower than DSS+saline mice ([3]; day 6, DSS+350 μg/kg NTX, p=0.015): 55% | Weight at necropsy among the three DSS sub-groups ([3]; day 9, off DSS for three days): no significant difference in weight | Food consumption ([3]; naltrexone treatment alone (Normal mice, no DSS)): no effect on food consumption | Inflammation by histology compared to DSS+saline (in words) ([4]; DSS mice, 350 μg/kg): less inflammation; also recorded: improved | Crypt architecture and invading leukocytes compared to DSS+saline ([4]; DSS+350 μg/kg NTX): improved crypt architecture and fewer invading leukocytes | Inflammation scores of distal colon compared to DSS+saline ([4]; DSS+NTX 6.3 and 350 μg/kg, trend did not reach statistical significance): dose-dependent decrease in inflammation and damage | Colonic inflammation, histology, Normal+saline versus Normal+NTX ([4]; Normal mice (no DSS)): No differences in colonic inflammation | Mucosal integrity of the colon ([4]; naltrexone alone (no DSS)): did not alter the mucosal integrity of the colon
